Laboratory results from PubChem BioAssay (NCI).
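Cultured in 96-well plates, cells were exposed to test compound for 48 hours across five concentrations. The concentration for full growth arrest is given as TGI.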

Legend:
Assay in all cases: inhibition of tumour cell growth, NCI panel, 48 h
786-0 renal = test system: 786-0 renal
A549 NSCLC = test system: A549 NSCLC
ACHN renal = test system: ACHN renal
BT-549 breast = test system: BT-549 breast
CAKI-1 renal = test system: CAKI-1 renal
CCRF-CEM leukemia = test system: CCRF-CEM leukemia
COLO 205 colon = test system: COLO 205 colon
DU-145 prostate = test system: DU-145 prostate
EKVX NSCLC = test system: EKVX NSCLC
HCC-2998 colon = test system: HCC-2998 colon
HCT-116 colon = test system: HCT-116 colon
HCT-15 colon = test system: HCT-15 colon
HL-60(TB) leukemia = test system: HL-60(TB) leukemia
HOP-92 NSCLC = test system: HOP-92 NSCLC
HS 578T breast = test system: HS 578T breast
HT29 colon = test system: HT29 colon
IGROV1 ovarian = test system: IGROV1 ovarian
K-562 leukemia = test system: K-562 leukemia
KM12 colon = test system: KM12 colon
LOX IMVI melanoma = test system: LOX IMVI melanoma
M14 melanoma = test system: M14 melanoma
MALME-3M melanoma = test system: MALME-3M melanoma
MCF7 breast = test system: MCF7 breast
MDA-MB-231 breast = test system: MDA-MB-231 breast
MDA-MB-435 = test system: MDA-MB-435
MDA-N = test system: MDA-N
MOLT-4 leukemia = test system: MOLT-4 leukemia
NCI-H226 lung = test system: NCI-H226 lung
NCI-H23 lung = test system: NCI-H23 lung
NCI-H460 lung = test system: NCI-H460 lung
NCI-H522 lung = test system: NCI-H522 lung
NCI/ADR-RES ovarian = test system: NCI/ADR-RES ovarian
OVCAR-3 ovarian = test system: OVCAR-3 ovarian
OVCAR-4 ovarian = test system: OVCAR-4 ovarian
OVCAR-5 ovarian = test system: OVCAR-5 ovarian
OVCAR-8 ovarian = test system: OVCAR-8 ovarian
PC-3 prostate = test system: PC-3 prostate
RPMI-8226 leukemia = test system: RPMI-8226 leukemia
SF-268 CNS = test system: SF-268 CNS
SF-295 CNS = test system: SF-295 CNS
SF-539 CNS = test system: SF-539 CNS
SK-MEL-2 melanoma = test system: SK-MEL-2 melanoma
SK-MEL-28 melanoma = test system: SK-MEL-28 melanoma
SK-MEL-5 melanoma = test system: SK-MEL-5 melanoma
SK-OV-3 ovarian = test system: SK-OV-3 ovarian
SN12C renal = test system: SN12C renal
SNB-19 CNS = test system: SNB-19 CNS
SNB-75 CNS = test system: SNB-75 CNS
SW-620 colon = test system: SW-620 colon
T-47D breast = test system: T-47D breast
TK-10 renal = test system: TK-10 renal
U251 CNS = test system: U251 CNS
UACC-257 melanoma = test system: UACC-257 melanoma
UACC-62 melanoma = test system: UACC-62 melanoma
UO-31 renal = test system: UO-31 renal
A498 renal = test system: A498 renal
HOP-62 NSCLC = test system: HOP-62 NSCLC
RXF 393 renal = test system: RXF 393 renal

`C=C1C(=O)C23CC1CCC2C12CO[C@H](O)[C@H]1C(C)(C)[C@H](OC(C)=O)C[C@H]2OC3=O` (some centres not stated) was tested, and the TGI (786-0 renal) was 29.9 µM, the TGI (A549 NSCLC) was over 100 µM and the TGI (ACHN renal) was 29.6 µM. The TGI (BT-549 breast) was 21.9 µM, the TGI (CAKI-1 renal) was 28.8 µM and the TGI (CCRF-CEM leukemia) was over 100 µM. For the same compound, the TGI (COLO 205 colon) was 28.8 µM, the TGI (DU-145 prostate) was 83.3 µM and the TGI (EKVX NSCLC) was 29.1 µM. The TGI (HCC-2998 colon) was 54.2 µM, the TGI (HCT-116 colon) was 28 µM and the TGI (HCT-15 colon) was 28.8 µM. The TGI (HL-60(TB) leukemia) was 87.9 µM, the TGI (HOP-92 NSCLC) was 22.2 µM and the TGI (HS 578T breast) was over 100 µM. It also gave a TGI (HT29 colon) of 27.1 µM, a TGI (IGROV1 ovarian) of over 100 µM and a TGI (K-562 leukemia) of over 100 µM. It also gave a TGI (KM12 colon) of over 100 µM, a TGI (LOX IMVI melanoma) of 33.7 µM and a TGI (M14 melanoma) of 53.2 µM. It also gave a TGI (MALME-3M melanoma) of 28.1 µM, a TGI (MCF7 breast) of 32.4 µM and a TGI (MDA-MB-231 breast) of 37.2 µM. It also gave a TGI (MDA-MB-435) of 44.8 µM, a TGI (MDA-N) of 30.6 µM and a TGI (MOLT-4 leukemia) of 82.2 µM. It also gave a TGI (NCI-H226 lung) of over 100 µM, a TGI (NCI-H23 lung) of over 100 µM and a TGI (NCI-H460 lung) of over 100 µM. For the same compound, the TGI (NCI-H522 lung) was 3.63 µM, the TGI (NCI/ADR-RES ovarian) was over 100 µM and the TGI (OVCAR-3 ovarian) was 55.2 µM. For the same compound, the TGI (OVCAR-4 ovarian) was over 100 µM, the TGI (OVCAR-5 ovarian) was 33.3 µM and the TGI (OVCAR-8 ovarian) was over 100 µM. It also gave a TGI (PC-3 prostate) of over 100 µM, a TGI (RPMI-8226 leukemia) of over 100 µM and a TGI (SF-268 CNS) of 34.2 µM. The TGI (SF-295 CNS) was over 100 µM, the TGI (SF-539 CNS) was 41.7 µM and the TGI (SK-MEL-2 melanoma) was 31.1 µM. The TGI (SK-MEL-28 melanoma) was 33.2 µM, the TGI (SK-MEL-5 melanoma) was 77.1 µM and the TGI (SK-OV-3 ovarian) was over 100 µM. The TGI (SN12C renal) was 46.2 µM, the TGI (SNB-19 CNS) was over 100 µM and the TGI (SNB-75 CNS) was over 100 µM. For the same compound, the TGI (SW-620 colon) was 30.5 µM, the TGI (T-47D breast) was 40.5 µM and the TGI (TK-10 renal) was 28.5 µM. It also gave a TGI (U251 CNS) of over 100 µM, a TGI (UACC-257 melanoma) of over 100 µM and a TGI (UACC-62 melanoma) of 28.9 µM. For the same compound, the TGI (UO-31 renal) was 67.7 µM.

`N#Cc1c(=N)cc2c3ccccc3oc3c(C#N)c(N)[nH]c1c32` showed a TGI (786-0 renal) of over 100 µM, a TGI (A498 renal) of over 100 µM and a TGI (A549 NSCLC) of over 100 µM. The TGI (ACHN renal) was over 100 µM, the TGI (BT-549 breast) was over 100 µM and the TGI (CAKI-1 renal) was over 100 µM. The TGI (CCRF-CEM leukemia) was over 100 µM, the TGI (COLO 205 colon) was over 100 µM and the TGI (DU-145 prostate) was over 100 µM. It also gave a TGI (EKVX NSCLC) of over 100 µM, a TGI (HCC-2998 colon) of over 100 µM and a TGI (HCT-116 colon) of over 100 µM. For the same compound, the TGI (HCT-15 colon) was over 100 µM, the TGI (HL-60(TB) leukemia) was over 100 µM and the TGI (HOP-62 NSCLC) was over 100 µM. It also gave a TGI (HOP-92 NSCLC) of over 100 µM, a TGI (HS 578T breast) of over 100 µM and a TGI (HT29 colon) of over 100 µM. It also gave a TGI (IGROV1 ovarian) of over 100 µM, a TGI (K-562 leukemia) of over 100 µM and a TGI (KM12 colon) of over 100 µM. The TGI (LOX IMVI melanoma) was over 100 µM, the TGI (M14 melanoma) was over 100 µM and the TGI (MALME-3M melanoma) was over 100 µM. It also gave a TGI (MCF7 breast) of over 100 µM, a TGI (MDA-MB-231 breast) of over 100 µM and a TGI (MDA-MB-435) of over 100 µM. The TGI (MDA-N) was over 100 µM, the TGI (MOLT-4 leukemia) was over 100 µM and the TGI (NCI-H226 lung) was over 100 µM. It also gave a TGI (NCI-H23 lung) of over 100 µM, a TGI (NCI-H460 lung) of over 100 µM and a TGI (NCI/ADR-RES ovarian) of over 100 µM. The TGI (OVCAR-3 ovarian) was over 100 µM, the TGI (OVCAR-4 ovarian) was over 100 µM and the TGI (OVCAR-5 ovarian) was over 100 µM. The TGI (OVCAR-8 ovarian) was over 100 µM, the TGI (PC-3 prostate) was over 100 µM and the TGI (RPMI-8226 leukemia) was over 100 µM. It also gave a TGI (RXF 393 renal) of over 100 µM, a TGI (SF-268 CNS) of over 100 µM and a TGI (SF-295 CNS) of over 100 µM. The TGI (SF-539 CNS) was over 100 µM, the TGI (SK-MEL-2 melanoma) was over 100 µM and the TGI (SK-MEL-28 melanoma) was over 100 µM. For the same compound, the TGI (SK-MEL-5 melanoma) was over 100 µM, the TGI (SK-OV-3 ovarian) was over 100 µM and the TGI (SN12C renal) was over 100 µM. The TGI (SNB-19 CNS) was over 100 µM, the TGI (SNB-75 CNS) was over 100 µM and the TGI (SW-620 colon) was over 100 µM. For the same compound, the TGI (T-47D breast) was over 100 µM, the TGI (TK-10 renal) was over 100 µM and the TGI (U251 CNS) was over 100 µM. The TGI (UACC-257 melanoma) was over 100 µM, the TGI (UACC-62 melanoma) was over 100 µM and the TGI (UO-31 renal) was over 100 µM.
